Experimental data: patent US4245050A, “Process for the preparation of choline oxidase by fermentation” (Kyowa Hakko Kogyo Co., Ltd., priority 1976, dated 1981)
Where a name gives a salt, the structure may show the parent alone. Read-outs that look alike come from different tables or passages of the source.

Key:
[1] = system: choline oxidase derived from B. album KY 4319; assay: Substrate specificity of choline oxidase; format: biochemical, Brevibacterium album; details: enzyme 1.5 U/ml; activity on choline chloride defined as 100
Protocol: (§1) The activity of choline oxidase in the experimental examples and the following examples is determined by oxidizing choline with choline oxidase to produce hydrogen peroxide, decomposing hydrogen peroxide with peroxidase in the presence of phenol and 4-aminoantipyrine to produce the pigment, and measuring the absorbancy of the pigment solution as described below.
(§2) Choline oxidase is dissolved in 0.05 mol/L Tris buffer having a pH of 8.0 to make up a specific concentration (1.5 and 0.4 U/ml respectively in case of choline oxidase derived from KY 4319 and KY 3505 strains). The solutions are then subjected to the same determination of choline oxidase as described above except that the various substances other than choline chloride shown in Table 3 are used as a substrate. The relative activities on the various substrates are calculated by defining the activity on choline chloride as 100.

[2] = system: choline oxidase derived from C. murisepticum KY 3505; assay: Substrate specificity of choline oxidase; format: biochemical, Corynebacterium murisepticum; details: enzyme 0.4 U/ml; activity on choline chloride defined as 100
Protocol: as §1, §2

[3] = system: choline oxidase derived from Brevibacterium album KY 4319; details: for oxygen consumed per 1 mol of substrate (concluded stoichiometry): conclusion from Table 3; for Amount of O2 uptake [B]: 37° C., pH 8.0
Protocol: (§3) In the following Experiment (1) and (2), choline oxidase, derived from Brevibacterium album KY 4319 is used.
Then, 0.5 ml of 0.05 mol/L Tris buffer (pH 8.0) containing 1.5 U/ml of choline oxidase is put in the side arm, and reaction is carried out at 37° C. During the reaction, the amount of oxygen uptake (volume) is measured at regular intervals of time. The reaction is completed in 30-40 minutes.

[4] = system: choline oxidase derived from Brevibacterium album KY 4319; details: for hydrogen peroxide produced from 1 mol of substrate (concluded stoichiometry): conclusion from Table 4; for Amount of hydrogen peroxide [B']: 37° C., 20 minutes, pH 8.0
Protocol: as §3
In this experiment, 0.05 mol/L Tris buffer (pH 8.0) containing 0.001 mol/L of 4-aminoantripyrine, 0.001 mol/L of phenol and 50 mg/L of peroxidase is used as a color-forming liquid. […] The absorbancy of the reaction mixture is measured at 500 nm. The amount of hydrogen peroxide produced is calculated based on the measured value. The ratio of the amount of the hydrogen peroxide produced (μmol) to the amount of the charged substrate (μmol) is shown in Table 4.

[5] = system: Corynebacterium murisepticum KY 3505
Protocol: as §1
In this experimental example, Brevibacterium album KY 4319 and Corynebacterium murisepticum KY 3505 are used. 10 ml portions of a nutrient medium having the following composition are poured into 70 ml-test tubes and sterilized at 120° C. for 15 minutes.
One loopful of the above strains are separately inoculated into the medium in the test tubes, and culturing is carried out with shaking at 30° C. for […].
After the completion of culturing, each of the culture liquors is subjected to centrifugation. The resultant microbial cells are suspended in 10 ml of 0.05 mol/L Tris buffer having a pH of 8.0 and disrupted by ultrasonic generator. The resultant mixture is subjected to centrifugation and choline oxidase activity of the supernatant is measured.

[6] = system: Brevibacterium album KY 4319
Protocol: A 0.05 mol/L Tris buffer solution (pH 8.0) containing 0.01 mol/L of 4-aminoantipyrine, 0.01 mol/L of phenol and 5000 U/L of peroxidase is prepared and used as color-forming liquid. […] Reaction is carried out at 37° C. for 20 minutes and then the absorbancy of the solution is measured at 500 nm. The amount of the reacted choline chloride is calculated based on the measured value. The enzyme activity is expressed by "U" which is defined as the amount of enzyme which will decompose 1 μmole of choline in 1 minute under the above-described conditions.

[7] = system: choline oxidase derived from B. album KY 4319
Protocol: An approximately 4 ml-reactor for measurement of oxygen absorption is kept at 37° C. and an oxygen electrode is inserted therein. Choline oxidase is dissolved in 0.05 mol/L Tris buffer having a pH of 8.0 to make up a concentration of 0.8 U/ml. […] The concentration of oxygen dissolved in the solution is recorded continuously by recorder while stirring the solution. Decrease in oxygen concentration for 5 minutes after the start of the reaction is calculated.
The same procedure as above is repeated except that sodium azide is not added (control).

[8] = choline chloride 0.5 g/dl (36 mmol/L) in medium
[9] = choline chloride 1.0 g/dl (72 mmol/L) in medium
[10] = choline chloride 5.0 g/dl (360 mmol/L) in medium
[11] = choline chloride 10.0 g/dl (720 mmol/L) in medium

CN(C)CCO [2-dimethylaminoethanol, 2-dimethyl-aminoethanol]
Substrate specificity (relative activity %) [1]: 7.3%
Substrate specificity (relative activity %) [2]: 8.5%

CNCCO [2-methylaminoethanol, 2-methyl-aminoethanol]
Substrate specificity (relative activity %) [1]: 1.0%
Substrate specificity (relative activity %) [2]: 0%

CC(=O)OCC[N+](C)(C)C.[Cl-] [acetylcholine chloride]
Substrate specificity (relative activity %) [1]: 0%
Substrate specificity (relative activity %) [2]: 0%

C[N+](C)(C)CC=O [betaine aldehyde]
oxygen consumed per 1 mol of substrate (concluded stoichiometry) [3]: 1 mol
[B]/[A] (O2 uptake / charged substrate) ([3]; substrate 1.25 μmol): 0.88
Amount of O2 uptake [B] ([3]; substrate 1.25 μmol): 1.10 µmol
[B]/[A] (O2 uptake / charged substrate) ([3]; substrate 2.50 μmol): 0.92
Amount of O2 uptake [B] ([3]; substrate 2.50 μmol): 2.31 µmol
[B]/[A] (O2 uptake / charged substrate) ([3]; substrate 5.00 μmol): 0.93
Amount of O2 uptake [B] ([3]; substrate 5.00 μmol): 4.67 µmol
hydrogen peroxide produced from 1 mol of substrate (concluded stoichiometry) [4]: 1 mol
[B']/[A'] (hydrogen peroxide produced / charged substrate) ([4]; substrate 0.045 μmol): 0.78
Amount of hydrogen peroxide [B'] ([4]; substrate 0.045 μmol): 0.035 µmol
[B']/[A'] (hydrogen peroxide produced / charged substrate) ([4]; substrate 0.090 μmol): 0.93
Amount of hydrogen peroxide [B'] ([4]; substrate 0.090 μmol): 0.084 µmol
[B']/[A'] (hydrogen peroxide produced / charged substrate) ([4]; substrate 0.180 μmol): 0.93
Amount of hydrogen peroxide [B'] ([4]; substrate 0.180 μmol): 0.168 µmol

C[N+](C)(C)CC(=O)O [betaine]
Substrate specificity (relative activity %) [1]: 0%
Substrate specificity (relative activity %) [2]: 0%

C[N+](C)(C)CCO.[Cl-] [choline chloride]
Activity of choline oxidase ([5]; choline chloride 0.1 g/dl (7.2 mmol/L) in medium): 6.4 U/dl
Activity of choline oxidase [5, 8]: 9.3 U/dl
Activity of choline oxidase [5, 9]: 17.1 U/dl
Activity of choline oxidase ([5]; choline chloride 2.0 g/dl (144 mmol/L) in medium): 17.5 U/dl
Activity of choline oxidase [5, 10]: 12.8 U/dl
Activity of choline oxidase [5, 11]: 6.7 U/dl
Substrate specificity (relative activity %) [1]: 100%
Substrate specificity (relative activity %) [2]: 100%
Activity of choline oxidase ([6]; choline chloride 0.1 g/dl (7.2 mmol/L) in medium, 30° C. culture, supernatant of disrupted cells): 13.0 U/dl
Activity of choline oxidase [6, 8]: 35.4 U/dl
Activity of choline oxidase [6, 9]: 32.7 U/dl
Activity of choline oxidase [6, 10]: 23.4 U/dl
Activity of choline oxidase [6, 11]: 15.1 U/dl
oxygen consumed per 1 mol of substrate (concluded stoichiometry) [3]: 2 mol
[B]/[A] (O2 uptake / charged substrate) ([3]; substrate 1.25 μmol): 1.87
Amount of O2 uptake [B] ([3]; substrate 1.25 μmol): 2.34 µmol
[B]/[A] (O2 uptake / charged substrate) ([3]; substrate 2.50 μmol): 1.89
Amount of O2 uptake [B] ([3]; substrate 2.50 μmol): 4.72 µmol
[B]/[A] (O2 uptake / charged substrate) ([3]; substrate 5.00 μmol): 1.91
Amount of O2 uptake [B] ([3]; substrate 5.00 μmol): 9.56 µmol
amount of oxygen consumed by 1 mol of substrate ([3]; summary of Table 3): 1.87 to 1.91 mol
hydrogen peroxide produced from 1 mol of substrate (concluded stoichiometry) [4]: 2 mol
[B']/[A'] (hydrogen peroxide produced / charged substrate) ([4]; substrate 0.045 μmol): 1.80
Amount of hydrogen peroxide [B'] ([4]; substrate 0.045 μmol): 0.081 µmol
[B']/[A'] (hydrogen peroxide produced / charged substrate) ([4]; substrate 0.090 μmol): 1.67
Amount of hydrogen peroxide [B'] ([4]; substrate 0.090 μmol): 0.150 µmol
[B']/[A'] (hydrogen peroxide produced / charged substrate) ([4]; substrate 0.180 μmol): 1.72
Amount of hydrogen peroxide [B'] ([4]; substrate 0.180 μmol): 0.310 µmol
amount of hydrogen peroxide produced from 1 mol of substrate ([4]; summary of Table 4): 1.67 to 1.80 mol

NCCO [ethanolamine hydrochloride]
Substrate specificity (relative activity %) [1]: 0%
Substrate specificity (relative activity %) [2]: 0%

NCC(=O)O [glycine]
Substrate specificity (relative activity %) [1]: 0%
Substrate specificity (relative activity %) [2]: 0%

CNCC(=O)O [sarcosine]
Substrate specificity (relative activity %) [1]: 0%
Substrate specificity (relative activity %) [2]: 0%

[N-]=[N+]=[N-] [sodium azide]
Inhibitor [7]: Inhibitor
enzyme activity inhibited, compared with the control ([7]; 1.7×10^-3 mol/L sodium azide, 37° C., pH 8.0, 5 minutes): 44.4%
